Experimental data: the supplement of paper PMC10307832

What was measured:
Experiment in all cases: relative viability (nuclei count vs DMSO), 5 days (fraction); higher = more cells survive
NCI-H1563 = test system: NCI-H1563
How it was run: (§1)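 Dosing by pin tool came one day after lung cancer cell lines were seeded in 1536-well plates, using either one drug or a fixed anchor-drug dose plus five library-drug doses (not always all listed) in √10 steps. After 5 days, nuclei were counted on 4× images. Relative viability is treated-well nuclei count divided by vehicle-well nuclei count, and values are medians of duplicate plates.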

NCI-H1623 = test system: NCI-H1623
How it was run: as §1

NCI-H1648 = test system: NCI-H1648
How it was run: as §1

NCI-H1703 = test system: NCI-H1703
How it was run: as §1

Calu-6 = test system: Calu-6
How it was run: as §1

EBC-1 = test system: EBC-1
How it was run: as §1

| Compound | relative viability (NCI-H1563; first compound 0.253 µM) | relative viability (NCI-H1563; first compound 0.8 µM) | relative viability (NCI-H1563; first compound 2.53 µM) | relative viability (NCI-H1563; first compound 8 µM) | relative viability (NCI-H1623; first compound 0.253 µM) | relative viability (NCI-H1623; first compound 0.8 µM) | relative viability (NCI-H1623; first compound 2.53 µM) | relative viability (NCI-H1623; first compound 8 µM) | relative viability (NCI-H1648; first compound 0.253 µM) | relative viability (NCI-H1648; first compound 2.53 µM) | relative viability (NCI-H1648; first compound 8 µM) | relative viability (NCI-H1703; first compound 0.253 µM) | relative viability (NCI-H1703; first compound 0.8 µM) | relative viability (NCI-H1703; first compound 2.53 µM) | relative viability (NCI-H1703; first compound 8 µM) | relative viability (Calu-6; first compound 0.253 µM) | relative viability (Calu-6; first compound 0.8 µM) | relative viability (Calu-6; first compound 2.53 µM) | relative viability (Calu-6; first compound 8 µM) | relative viability (EBC-1; first compound 0.253 µM) | other results |
| --- | --- | --- | --- | --- | --- | --- | --- | --- | --- | --- | --- | --- | --- | --- | --- | --- | --- | --- | --- | --- | --- |
| Nc1cccc2c1CN(C1CCC(=O)NC1=O)C2=O (centres undefined) [Lenalidomide] + CCNC(=O)c1noc(-c2cc(C(C)C)c(O)cc2O)c1-c1ccc(CN2CCOCC2)cc1 [Luminespib] (partner 0.01 µM) | 0.535 | 0.526 | 0.468 | 0.581 | 0.413 | 0.474 | 0.557 | 0.399 |  |  |  |  |  |  |  |  |  |  |  |  |  |
| Nc1cccc2c1CN(C1CCC(=O)NC1=O)C2=O (centres undefined) [Lenalidomide] + Nc1ncn([C@H]2C[C@H](O)[C@@H](CO)O2)c(=O)n1 [Decitabine] (partner 2 µM) |  |  |  |  |  |  |  |  | 0.562 | 0.557 | 0.411 |  |  |  |  |  |  |  |  |  |  |
| Nc1cccc2c1CN(C1CCC(=O)NC1=O)C2=O (centres undefined) [Lenalidomide] + Cc1nc(Nc2ncc(C(=O)Nc3c(C)cccc3Cl)s2)cc(N2CCN(CCO)CC2)n1 [Dasatinib] (partner 0.075 µM) | 0.477 | 0.43 | 0.499 | 0.464 | 0.51 | 0.466 | 0.523 | 0.497 |  |  |  |  |  |  |  |  |  |  |  |  |  |
| Nc1cccc2c1CN(C1CCC(=O)NC1=O)C2=O (centres undefined) [Lenalidomide] + N=C(N)NC(=N)NCCc1ccccc1 [Phenformin] (partner 250 µM) | 0.667 | 0.774 | 0.697 | 0.613 | 0.572 | 0.576 | 0.601 | 0.544 |  |  |  |  |  |  |  |  |  |  |  |  |  |
| Cc1cn(-c2cc(NC(=O)c3ccc(C)c(Nc4nccc(-c5cccnc5)n4)c3)cc(C(F)(F)F)c2)cn1 [Nilotinib] + Nc1nc2[nH]cc(CCc3ccc(C(=O)N[C@@H](CCC(=O)O)C(=O)O)cc3)c2c(=O)[nH]1 [Pemetrexed] (partner 0.2 µM) |  |  |  |  |  |  |  |  |  |  |  |  |  |  |  |  |  |  |  |  | relative viability (NCI-H1563; first compound 0.001 µM): 0.746; relative viability (NCI-H1563; first compound 0.003162 µM): 0.712; relative viability (NCI-H1563; first compound 0.01 µM): 0.796; relative viability (NCI-H1563; first compound 0.03162 µM): 0.667; relative viability (NCI-H1563; first compound 0.1 µM): 0.552; relative viability (NCI-H1648; first compound 0.001 µM): 0.792; relative viability (NCI-H1648; first compound 0.003162 µM): 0.685; relative viability (NCI-H1648; first compound 0.01 µM): 0.726; relative viability (NCI-H1648; first compound 0.03162 µM): 0.506; relative viability (NCI-H1648; first compound 0.1 µM): 0.685 |
| Nc1cccc2c1CN(C1CCC(=O)NC1=O)C2=O (centres undefined) [Lenalidomide] + NC(=O)Nc1cc(-c2cccc(F)c2)sc1C(=O)N[C@H]1CCCNC1 [AZD7762] (partner 0.2 µM) |  |  |  |  |  |  |  |  | 0.591 | 0.626 | 0.689 | 0.123 | 0.117 | 0.131 | 0.135 |  |  |  |  |  |  |
| Nc1cccc2c1CN(C1CCC(=O)NC1=O)C2=O (centres undefined) [Lenalidomide] + CS(=O)(=O)N1CCN(Cc2cc3nc(-c4cccc5[nH]ncc45)nc(N4CCOCC4)c3s2)CC1 [Pictilisib] (partner 1 µM) | 0.713 | 0.667 | 0.685 | 0.638 |  |  |  |  |  |  |  | 0.245 | 0.27 | 0.287 | 0.267 | 0.861 | 1.01 | 1.06 | 0.969 | 0.398 | relative viability (EBC-1; first compound 0.8 µM): 0.323; relative viability (EBC-1; first compound 2.53 µM): 0.498; relative viability (EBC-1; first compound 8 µM): 0.512 |
| Nc1cccc2c1CN(C1CCC(=O)NC1=O)C2=O (centres undefined) [Lenalidomide] + C[C@]1(O)C[C@@H](c2nc(-c3ccc4ccc(-c5ccccc5)nc4c3)c3c(N)nccn32)C1 [Linsitinib] (partner 1 µM) | 1.17 | 1.16 | 1.08 | 1.01 |  |  |  |  |  |  |  | 0.566 | 1.01 | 0.956 | 0.431 | 0.836 | 0.984 | 1.12 | 0.818 | 0.826 | relative viability (EBC-1; first compound 0.8 µM): 0.849; relative viability (EBC-1; first compound 2.53 µM): 1.09; relative viability (EBC-1; first compound 8 µM): 0.774 |
| Nc1cccc2c1CN(C1CCC(=O)NC1=O)C2=O (centres undefined) [Lenalidomide] + Cc1cc(Nc2cc(N3CCN(C)CC3)nc(Sc3ccc(NC(=O)C4CC4)cc3)n2)n[nH]1 [Tozasertib] (partner 0.1 µM) |  |  |  |  | 0.427 | 0.36 | 0.43 | 0.496 | 0.578 | 0.509 | 0.599 |  |  |  |  |  |  |  |  |  | relative viability (NCI-H1648; first compound 0.8 µM): 0.317 |
| Cc1cn(-c2cc(NC(=O)c3ccc(C)c(Nc4nccc(-c5cccnc5)n4)c3)cc(C(F)(F)F)c2)cn1 [Nilotinib] + CS(=O)(=O)CCNCc1ccc(-c2ccc3ncnc(Nc4ccc(OCc5cccc(F)c5)c(Cl)c4)c3c2)o1 [Lapatinib] (partner 2 µM) |  |  |  |  |  |  |  |  |  |  |  |  |  |  |  |  |  |  |  |  | relative viability (NCI-H1563; first compound 0.001 µM): 0.961; relative viability (NCI-H1563; first compound 0.003162 µM): 0.916; relative viability (NCI-H1563; first compound 0.01 µM): 0.874; relative viability (NCI-H1563; first compound 0.03162 µM): 0.873; relative viability (NCI-H1563; first compound 0.1 µM): 0.596; relative viability (NCI-H1703; first compound 0.003162 µM): 0.738; relative viability (NCI-H1703; first compound 0.01 µM): 0.567; relative viability (NCI-H1703; first compound 0.03162 µM): 0.208; relative viability (NCI-H1703; first compound 0.1 µM): 0.227; relative viability (EBC-1; first compound 0.001 µM): 0.208; relative viability (EBC-1; first compound 0.003162 µM): 0.187; relative viability (EBC-1; first compound 0.01 µM): 0.179; relative viability (EBC-1; first compound 0.03162 µM): 0.186; relative viability (EBC-1; first compound 0.1 µM): 0.162 |
| Nc1cccc2c1CN(C1CCC(=O)NC1=O)C2=O (centres undefined) [Lenalidomide] + CC(=O)Nc1cccc(-n2c(=O)n(C3CC3)c(=O)c3c(Nc4ccc(I)cc4F)n(C)c(=O)c(C)c32)c1 [Trametinib] (partner 0.02 µM) |  |  |  |  |  |  |  |  | 0.556 | 0.597 | 0.476 |  |  |  |  |  |  |  |  |  |  |
| Nc1cccc2c1CN(C1CCC(=O)NC1=O)C2=O (centres undefined) [Lenalidomide] + CC1(C)CCC(c2ccc(Cl)cc2)=C(CN2CCN(c3ccc(C(=O)NS(=O)(=O)c4ccc(N[C@H](CCN5CCOCC5)CSc5ccccc5)c(S(=O)(=O)C(F)(F)F)c4)cc3)CC2)C1 [Navitoclax] (partner 0.5 µM) |  |  |  |  |  |  |  |  |  |  |  | 0.994 | 1.28 | 1.23 | 1.23 | 0.814 | 0.805 | 0.803 | 0.863 | 0.374 | relative viability (EBC-1; first compound 0.8 µM): 0.399; relative viability (EBC-1; first compound 2.53 µM): 0.434; relative viability (EBC-1; first compound 8 µM): 0.481 |
| Nc1cccc2c1CN(C1CCC(=O)NC1=O)C2=O (centres undefined) [Lenalidomide] + Nc1nc2[nH]cc(CCc3ccc(C(=O)N[C@@H](CCC(=O)O)C(=O)O)cc3)c2c(=O)[nH]1 [Pemetrexed] (partner 0.2 µM) | 1 | 0.361 | 0.952 | 0.637 |  |  |  |  | 0.765 | 0.711 | 0.747 |  |  |  |  |  |  |  |  |  |  |
| Nc1cccc2c1CN(C1CCC(=O)NC1=O)C2=O (centres undefined) [Lenalidomide] + C[C@@H](Oc1cc(-c2cnn(C3CCNCC3)c2)cnc1N)c1c(Cl)ccc(F)c1Cl [Crizotinib] (partner 1 µM) | 0.882 | 0.782 | 0.811 | 0.88 |  |  |  |  |  |  |  | 0.467 | 0.707 | 0.671 | 0.89 | 0.808 | 0.825 | 1.06 | 1.01 | 0.195 | relative viability (EBC-1; first compound 0.8 µM): 0.191; relative viability (EBC-1; first compound 2.53 µM): 0.154; relative viability (EBC-1; first compound 8 µM): 0.194 |
| Nc1cccc2c1CN(C1CCC(=O)NC1=O)C2=O (centres undefined) [Lenalidomide] + CC(=O)c1c(C)c2cnc(Nc3ccc(N4CCNCC4)cn3)nc2n(C2CCCC2)c1=O [Palbociclib] (partner 0.5 µM) |  |  |  |  |  |  |  |  | 0.304 | 0.282 | 0.253 |  |  |  |  |  |  |  |  |  |  |
| Nc1cccc2c1CN(C1CCC(=O)NC1=O)C2=O (centres undefined) [Lenalidomide] + O=C(CCCCCCC(=O)Nc1ccccc1)NO [Vorinostat] (partner 1 µM) |  |  |  |  |  |  |  |  | 0.513 | 0.885 | 0.392 |  |  |  |  |  |  |  |  |  |  |
| Nc1cccc2c1CN(C1CCC(=O)NC1=O)C2=O (centres undefined) [Lenalidomide] + COc1cccc2cc(-c3nc([C@H]4CC[C@H](C(=O)O)CC4)n4ncnc(N)c34)[nH]c12 [OSI-027] (partner 0.5 µM) | 0.751 | 0.8 | 0.804 | 0.72 | 0.433 | 0.418 | 0.375 | 0.392 | 0.272 | 0.253 | 0.227 |  |  |  |  |  |  |  |  |  | relative viability (NCI-H1648; first compound 0.8 µM): 0.22 |
| Nc1cccc2c1CN(C1CCC(=O)NC1=O)C2=O (centres undefined) [Lenalidomide] + O=C(c1cc(Cc2n[nH]c(=O)c3ccccc23)ccc1F)N1CCN(C(=O)C2CC2)CC1 [Olaparib] (partner 8 µM) |  |  |  |  |  |  |  |  | 0.883 | 1.12 | 0.922 | 0.398 | 0.521 | 0.478 | 0.433 | 0.547 | 0.591 | 0.674 | 0.799 | 0.708 | relative viability (EBC-1; first compound 0.8 µM): 0.603; relative viability (EBC-1; first compound 2.53 µM): 0.823; relative viability (EBC-1; first compound 8 µM): 0.691 |
| Nc1cccc2c1CN(C1CCC(=O)NC1=O)C2=O (centres undefined) [Lenalidomide] + COc1cc2c(Oc3ccc(NC(=O)C4(C(=O)Nc5ccc(F)cc5)CC4)cc3F)ccnc2cc1OCCCN1CCOCC1 [Foretinib] (partner 0.25 µM) | 0.894 | 0.933 | 0.902 | 0.77 | 0.858 | 0.784 | 0.862 | 0.71 |  |  |  | 0.328 | 0.348 | 0.403 | 0.426 | 0.932 | 0.889 | 0.921 | 0.887 | 0.0951 | relative viability (EBC-1; first compound 0.8 µM): 0.0871; relative viability (EBC-1; first compound 2.53 µM): 0.0994; relative viability (EBC-1; first compound 8 µM): 0.109 |
